Source: ChEMBL document CHEMBL3608215, “Natural β-Dihydroagarofuran-Type Sesquiterpenoids as Cognition-Enhancing and Neuroprotective Agents from Medicinal Plants of the Genus Celastrus” (2015)
The source made the active and inactive calls. The calls are words filed in the database; no cut-off is given here.

Columns and labels:
Mus musculus [1] = assay: Cognition-enhancing effect in ICR mouse assessed as reduction of scopolamine-induced escape latency and number of errors at 0.1 mg/kg, ig treated 1 hr before scopolamine challenge by passageway water maze test; assay type: functional, organism-based
Mus musculus [2] = assay: Cognition-enhancing effect in ICR mouse assessed as reduction of scopolamine-induced escape latency and number of errors at 20 mg/kg, ig treated 1 hr before scopolamine challenge by passageway water maze test; assay type: functional, organism-based
SH-SY5Y = assay: Neuroprotective activity in human SH-SY5Y cells assessed as production against amyloid beta (25 to 35)-induced cell death by measuring cell viability at 1 uM after 24 hrs by MTT assay; assay type: functional
Mus musculus [3] = assay: Cognition-enhancing effect in ICR mouse assessed as reduction of scopolamine-induced escape latency and number of errors at 10 to 40 mg/kg, ig treated 1 hr before scopolamine challenge by passageway water maze test; assay type: functional, organism-based
Mus musculus [4] = assay: Cognition-enhancing effect in ig dosed ICR mouse assessed as reduction of scopolamine-induced escape latency and number of errors treated 1 hr before scopolamine challenge by passageway water maze test; assay type: functional, organism-based

Compound | Activity (Mus musculus [1]) | Activity (Mus musculus [2]) | other results
C/C=C1\[C@H]2C=C(C)C[C@]1(N)c1ccc(=O)[nH]c1C2 | Active | – | –
CC(=O)O[C@H]1C[C@@H]2[C@@H](OC(C)=O)[C@]3(OC2(C)C)[C@H](C)CC[C@H](OC(=O)c2ccccc2)[C@@]13C | Active | Active | –
CC(=O)O[C@H]1[C@@H](OC(=O)/C=C/c2ccccc2)C[C@@H](C)[C@@]23C[C@@H](C[C@H](OC(=O)/C=C/c4ccccc4)[C@]12C)C(C)(C)O3 | – | – | Activity (SH-SY5Y): 76.3%
CC(=O)OC[C@@]12[C@@H](OC(C)=O)CC[C@@H](C)[C@]13OC(C)(C)[C@H](C[C@@H]2OC(=O)c1ccccc1)[C@H]3OC(C)=O | Active | Active | –
CC(=O)O[C@@H]1[C@@H]2[C@@H](OC(C)=O)[C@]3(OC2(C)C)[C@H](C)CC[C@H](OC(C)=O)[C@@]3(C)[C@H]1OC(=O)c1ccccc1 | – | – | Activity (Mus musculus [3]): inactive
CC(=O)O[C@H]1CC[C@@H](C)[C@@]23C[C@@H](C[C@H](OC(=O)/C=C/c4ccccc4)[C@]12C)C(C)(C)O3 | Active | – | Activity (Mus musculus [4]): Dose-dependent effect
CC(=O)O[C@@H]1[C@H]2C[C@H](OC(=O)/C=C/c3ccccc3)[C@]3(C)[C@@H](OC(C)=O)[C@@H](OC(=O)c4ccccc4)C[C@@H](C)[C@@]13OC2(C)C | – | – | Activity (SH-SY5Y): 79.6%
CC(=O)O[C@H]1C[C@@H]2[C@@H](OC(=O)c3ccccc3)[C@]3(OC2(C)C)[C@H](C)CC[C@H](OC(=O)c2ccccc2)[C@@]13C | Active | Active | –
